# Experimental data: PubChem BioAssay (NCI)
#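 Five compound concentrations were applied to cells in 96-well plates for 48 hours; endpoints were derived by simple linear interpolation of the resulting dose-response curve. GI50: concentration for 50% inhibition of growth. TGI: concentration producing complete growth inhibition.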
# Key:
# Assay in all cases: growth of human tumour cells (NCI), 48 h
# SNB-75 CNS = tested on: SNB-75 CNS
# NCI-H23 lung = tested on: NCI-H23 lung
# HOP-92 NSCLC = tested on: HOP-92 NSCLC
# SK-OV-3 ovarian = tested on: SK-OV-3 ovarian
# BT-549 breast = tested on: BT-549 breast
# RXF 393 renal = tested on: RXF 393 renal
# M14 melanoma = tested on: M14 melanoma
# MALME-3M melanoma = tested on: MALME-3M melanoma
# DU-145 prostate = tested on: DU-145 prostate
# UACC-257 melanoma = tested on: UACC-257 melanoma
# A549 NSCLC = tested on: A549 NSCLC
# TK-10 renal = tested on: TK-10 renal
# HOP-62 NSCLC = tested on: HOP-62 NSCLC
# UO-31 renal = tested on: UO-31 renal
# MCF7 breast = tested on: MCF7 breast
# U251 CNS = tested on: U251 CNS
# NCI-H460 lung = tested on: NCI-H460 lung
# KM12 colon = tested on: KM12 colon
# UACC-62 melanoma = tested on: UACC-62 melanoma
# OVCAR-8 ovarian = tested on: OVCAR-8 ovarian
# K-562 leukemia = tested on: K-562 leukemia
# OVCAR-4 ovarian = tested on: OVCAR-4 ovarian
# HCT-116 colon = tested on: HCT-116 colon
# ACHN renal = tested on: ACHN renal
# SNB-19 CNS = tested on: SNB-19 CNS
# SR leukemia = tested on: SR leukemia
# CCRF-CEM leukemia = tested on: CCRF-CEM leukemia
# SW-620 colon = tested on: SW-620 colon
# PC-3 prostate = tested on: PC-3 prostate
# RPMI-8226 leukemia = tested on: RPMI-8226 leukemia
# HT29 colon = tested on: HT29 colon
# CAKI-1 renal = tested on: CAKI-1 renal
# MDA-MB-435 = tested on: MDA-MB-435
# LOX IMVI melanoma = tested on: LOX IMVI melanoma
# OVCAR-3 ovarian = tested on: OVCAR-3 ovarian
# HS 578T breast = tested on: HS 578T breast
# MOLT-4 leukemia = tested on: MOLT-4 leukemia
# OVCAR-5 ovarian = tested on: OVCAR-5 ovarian
# NCI-H226 lung = tested on: NCI-H226 lung
# IGROV1 ovarian = tested on: IGROV1 ovarian
# SK-MEL-2 melanoma = tested on: SK-MEL-2 melanoma
# SK-MEL-28 melanoma = tested on: SK-MEL-28 melanoma
# SF-295 CNS = tested on: SF-295 CNS
# SN12C renal = tested on: SN12C renal
# T-47D breast = tested on: T-47D breast
# 786-0 renal = tested on: 786-0 renal
# SF-539 CNS = tested on: SF-539 CNS
# NCI-H522 lung = tested on: NCI-H522 lung
# NCI/ADR-RES ovarian = tested on: NCI/ADR-RES ovarian
# COLO 205 colon = tested on: COLO 205 colon
# SK-MEL-5 melanoma = tested on: SK-MEL-5 melanoma
# EKVX NSCLC = tested on: EKVX NSCLC
# HCT-15 colon = tested on: HCT-15 colon
# MDA-MB-231 breast = tested on: MDA-MB-231 breast
# SF-268 CNS = tested on: SF-268 CNS
# A498 renal = tested on: A498 renal
# HL-60(TB) leukemia = tested on: HL-60(TB) leukemia
# HCC-2998 colon = tested on: HCC-2998 colon
smiles,measurement,setting,value
C=C1C[C@H](O)[C@H]2C(C[Se]c3ccccc3)C(=O)O[C@@H]2[C@H]2[C@H](C)C(O)C[C@@H]12 (some centres undefined),TGI,SNB-75 CNS,> 100 µM
same,TGI,NCI-H23 lung,40.7 µM
same,TGI,HOP-92 NSCLC,> 100 µM
same,TGI,SK-OV-3 ovarian,> 100 µM
same,TGI,BT-549 breast,98.4 µM
same,TGI,RXF 393 renal,50.2 µM
same,TGI,M14 melanoma,> 100 µM
same,TGI,MALME-3M melanoma,> 100 µM
same,TGI,DU-145 prostate,> 100 µM
same,TGI,UACC-257 melanoma,> 100 µM
same,TGI,A549 NSCLC,> 100 µM
same,TGI,TK-10 renal,> 100 µM
same,TGI,HOP-62 NSCLC,> 100 µM
same,TGI,UO-31 renal,63.7 µM
same,TGI,MCF7 breast,> 100 µM
same,TGI,U251 CNS,30.8 µM
same,TGI,NCI-H460 lung,> 100 µM
same,TGI,KM12 colon,> 100 µM
same,TGI,UACC-62 melanoma,64.1 µM
same,TGI,OVCAR-8 ovarian,> 100 µM
same,TGI,K-562 leukemia,> 100 µM
same,TGI,OVCAR-4 ovarian,> 100 µM
same,TGI,HCT-116 colon,56.4 µM
same,TGI,ACHN renal,76.3 µM
same,TGI,SNB-19 CNS,> 100 µM
same,TGI,SR leukemia,> 100 µM
same,TGI,CCRF-CEM leukemia,> 100 µM
same,TGI,SW-620 colon,94.8 µM
same,TGI,PC-3 prostate,> 100 µM
same,TGI,RPMI-8226 leukemia,98 µM
same,TGI,HT29 colon,> 100 µM
same,TGI,CAKI-1 renal,> 100 µM
same,TGI,MDA-MB-435,> 100 µM
same,TGI,LOX IMVI melanoma,51.4 µM
same,TGI,OVCAR-3 ovarian,98.6 µM
same,TGI,HS 578T breast,> 100 µM
same,TGI,MOLT-4 leukemia,> 100 µM
same,TGI,OVCAR-5 ovarian,55 µM
same,TGI,NCI-H226 lung,83.9 µM
same,TGI,IGROV1 ovarian,93.1 µM
same,TGI,SK-MEL-2 melanoma,> 100 µM
same,TGI,SK-MEL-28 melanoma,> 100 µM
same,TGI,SF-295 CNS,> 100 µM
same,TGI,SN12C renal,65 µM
same,TGI,T-47D breast,> 100 µM
same,TGI,786-0 renal,99.3 µM
same,TGI,SF-539 CNS,> 100 µM
same,TGI,NCI-H522 lung,38.1 µM
same,TGI,NCI/ADR-RES ovarian,51.6 µM
same,TGI,COLO 205 colon,> 100 µM
same,TGI,SK-MEL-5 melanoma,> 100 µM
same,TGI,EKVX NSCLC,> 100 µM
same,TGI,HCT-15 colon,33.9 µM
same,TGI,MDA-MB-231 breast,38.1 µM
same,TGI,SF-268 CNS,> 100 µM
COc1cc(C(=O)/C=C/c2cc(-c3cc(OC)c(OC)c(OC)c3)n[nH]2)cc(OC)c1OC,GI50,NCI-H23 lung,3.04 µM
same,TGI,NCI-H23 lung,9.9 µM
same,GI50,HOP-92 NSCLC,0.186 µM
same,TGI,HOP-92 NSCLC,1.02 µM
same,GI50,SK-OV-3 ovarian,3.2 µM
same,TGI,SK-OV-3 ovarian,11.1 µM
same,GI50,BT-549 breast,1.57 µM
same,TGI,BT-549 breast,2.96 µM
same,GI50,RXF 393 renal,1.26 µM
same,TGI,RXF 393 renal,2.67 µM
same,GI50,M14 melanoma,1.79 µM
same,TGI,M14 melanoma,3.32 µM
same,GI50,MALME-3M melanoma,1.86 µM
same,TGI,MALME-3M melanoma,4.09 µM
same,GI50,UACC-257 melanoma,1.57 µM
same,TGI,UACC-257 melanoma,2.99 µM
same,GI50,A549 NSCLC,2.72 µM
same,TGI,A549 NSCLC,12.1 µM
same,GI50,TK-10 renal,1.46 µM
same,TGI,TK-10 renal,2.8 µM
same,GI50,HOP-62 NSCLC,1.46 µM
same,TGI,HOP-62 NSCLC,2.89 µM
same,GI50,UO-31 renal,1.19 µM
same,TGI,UO-31 renal,2.48 µM
same,GI50,MCF7 breast,0.646 µM
same,TGI,MCF7 breast,2.07 µM
same,GI50,U251 CNS,1.54 µM
same,TGI,U251 CNS,2.96 µM
same,GI50,NCI-H460 lung,1.89 µM
same,TGI,NCI-H460 lung,4.33 µM
same,GI50,KM12 colon,1.49 µM
same,TGI,KM12 colon,2.93 µM
same,GI50,UACC-62 melanoma,1.78 µM
same,TGI,UACC-62 melanoma,3.68 µM
same,GI50,OVCAR-8 ovarian,1.58 µM
same,TGI,OVCAR-8 ovarian,3.28 µM
same,GI50,K-562 leukemia,2.96 µM
same,TGI,K-562 leukemia,> 100 µM
same,GI50,OVCAR-4 ovarian,1.45 µM
same,TGI,OVCAR-4 ovarian,2.76 µM
same,GI50,HCT-116 colon,1.31 µM
same,TGI,HCT-116 colon,2.59 µM
same,GI50,ACHN renal,1.62 µM
same,TGI,ACHN renal,3.01 µM
same,GI50,SNB-19 CNS,1.66 µM
same,TGI,SNB-19 CNS,3.69 µM
same,GI50,SR leukemia,0.398 µM
same,TGI,SR leukemia,> 100 µM
same,GI50,SW-620 colon,1.59 µM
same,TGI,SW-620 colon,3.08 µM
same,GI50,PC-3 prostate,1.47 µM
same,TGI,PC-3 prostate,3.29 µM
same,GI50,RPMI-8226 leukemia,0.318 µM
same,TGI,RPMI-8226 leukemia,2.06 µM
same,GI50,HT29 colon,1.79 µM
same,TGI,HT29 colon,3.37 µM
same,GI50,CAKI-1 renal,2.58 µM
same,TGI,CAKI-1 renal,10.9 µM
same,GI50,MDA-MB-435,1.49 µM
same,TGI,MDA-MB-435,2.95 µM
same,GI50,LOX IMVI melanoma,1.52 µM
same,TGI,LOX IMVI melanoma,2.91 µM
same,GI50,OVCAR-3 ovarian,1.75 µM
same,TGI,OVCAR-3 ovarian,3.18 µM
same,GI50,A498 renal,1.61 µM
same,TGI,A498 renal,3.59 µM
same,GI50,HS 578T breast,2.68 µM
same,TGI,HS 578T breast,53.9 µM
same,GI50,MOLT-4 leukemia,2.32 µM
same,TGI,MOLT-4 leukemia,8.95 µM
same,GI50,OVCAR-5 ovarian,1.64 µM
same,TGI,OVCAR-5 ovarian,3.12 µM
same,GI50,IGROV1 ovarian,3.14 µM
same,TGI,IGROV1 ovarian,10.2 µM
same,GI50,SK-MEL-2 melanoma,1.96 µM
same,TGI,SK-MEL-2 melanoma,4.04 µM
same,GI50,SK-MEL-28 melanoma,1.82 µM
same,TGI,SK-MEL-28 melanoma,3.33 µM
same,GI50,SN12C renal,1.47 µM
same,TGI,SN12C renal,2.97 µM
same,GI50,T-47D breast,1.13 µM
same,TGI,T-47D breast,2.57 µM
same,GI50,HL-60(TB) leukemia,1.93 µM
same,TGI,HL-60(TB) leukemia,5.52 µM
same,GI50,786-0 renal,1.56 µM
same,TGI,786-0 renal,3.25 µM
same,GI50,SF-539 CNS,1.29 µM
same,TGI,SF-539 CNS,2.83 µM
same,GI50,NCI-H522 lung,0.521 µM
same,TGI,NCI-H522 lung,1.7 µM
same,GI50,HCC-2998 colon,1.83 µM
same,TGI,HCC-2998 colon,3.39 µM
same,GI50,NCI/ADR-RES ovarian,3.47 µM
same,TGI,NCI/ADR-RES ovarian,21.4 µM
same,GI50,COLO 205 colon,1.75 µM
same,TGI,COLO 205 colon,3.13 µM
same,GI50,SK-MEL-5 melanoma,1.57 µM
same,TGI,SK-MEL-5 melanoma,2.94 µM
same,GI50,HCT-15 colon,1.5 µM
same,TGI,HCT-15 colon,3.29 µM
same,GI50,MDA-MB-231 breast,1.52 µM
same,TGI,MDA-MB-231 breast,3.8 µM
same,GI50,SF-268 CNS,1.94 µM
same,TGI,SF-268 CNS,4.58 µM
